Drawing on ChEMBL document CHEMBL3734745, “Synthesis of six mexiletine derivatives with isoindolines attached as potential antioxidants and their evaluation as cardioprotective agents” (Medchemcomm, 2015), this text covers Activity for 11 compounds.

Activity calls are given as the source filed them. No cut-off for these calls is given here.

In data set [1] the test system is Aorta. Kind of data set: Antioxidant activity in NADPH stimulated Sprague-Dawley rat aorta assessed as reduction in photon emission at 10 uM incubated for 45 mins by lucigenin-enhanced chemiluminescence assay. Format: functional, tissue-based.
For data set [2], the system named is Erythrocyte. Kind of data set: Antioxidant activity in C57Bl/6 mouse erythrocyte assessed as increase in AAPH-induced hemolysis time incubated for 30 mins by spectrophotometry. It is filed as functional, cell-based.
The subject of data set [3] is RAW264.7. Kind of data set: Cytotoxicity against mouse RAW264.7 cells assessed as cell viability at 100 uM by MTS assay. Format: cell-based. Conditions: raw264.7, 100 µM. On the technique in general: Tetrazolium dyes change colour on reduction, which living cells bring about.
Data set [4] concerns Right cardiac atrium. Kind of data set: Reduction in resting atrial rate in Guinea pig right atria at 100 uM by electrogram (reference value: 175 to 200 bpm). Format: functional.
Data set [5] deals with RAW264.7. Kind of data set: Antioxidant activity in phorbol 12,13-dibutyrate stimulated mouse RAW264.7 cells assessed as inhibition of ROS generation by measuring the reduction in photon emission at 100 uM incubated for 60 mins by L-012-enhanced chemiluminescence assay relative to control. It is filed as functional.
Data set [6] is described as follows: Toxicity in rat H9c2(2-1) cells assessed as cell death at 10 uM incubated for 12 hrs under hypoxic simulated ischemia by propidium iodide exclusion assay. Format: cell-based.
Data set [7] is filed under the species Cavia porcellus. Kind of data set: Effect on papillary muscle refractory period in Guinea pig at 100 uM by electrogram. It is filed as functional, tissue-based.
The test system of data set [8] is Right cardiac atrium. Kind of data set: Increase in absolute refractory period in Guinea pig right atria at 100 uM incubated for 30 mins by electrogram. Format: functional. As to conditions: Cavia porcellus.
Data set [9] can be described thus: (§1) Cardio-protective anti-ischemic activity in rat H9c2(2-1) cells assessed as reduction in cell death at 5 uM incubated for 12 hrs under hypoxic simulated ischemia by propidium iodide exclusion assay. Format: functional. Details: scale not given: the % may be the effect or the level left.
The species named for data set [10] is Rattus norvegicus. The data set is described as §1. It is filed as functional.

For the compound `CC1(C)c2ccccc2C(C)(C)N1O`, the result in data set [1] and in data set [2] was inactive. Besides, the Activity result in data set [3] was “Non-toxic”.

As to `Cc1cccc(C)c1OCC(C)NCc1ccc2c(c1)C(C)(C)NC2(C)C` (stereo not drawn), the outcome in data set [4] (Cavia porcellus) and in data set [8] was Active. In addition, the outcome in [5] and in [7] was inactive. In addition, the Activity entry is “Toxic” in data set [6] and 55% in data set [9].

Take `Cc1cccc(C)c1OCC(C)NCc1ccc2c(c1)C(C)(C)N(O)C2(C)C` (stereo not drawn): the outcome in [4] (Cavia porcellus), in [8] and in data set [10] was Active. Moreover, the outcome in data set [5] and in data set [7] was inactive. In data set [6], the Activity entry is listed as “Toxic”.

In the case of `Cc1cccc(C)c1OCC(C)NCc1ccc2c(c1)C(C)(C)N([O])C2(C)C` (stereo not drawn), the outcome in data set [4] (Cavia porcellus) and in [8] was Active. Besides, the outcome in data set [5] and in data set [7] was inactive.

On to `Cc1cccc(C)c1OCC(C)N` (stereo not drawn) [MEXILETINE], for which the Activity in data set [4] is on record as 15 bpm. Also, the outcome in data set [5], in data set [1], in data set [2] and in data set [10] was inactive. Further, the outcome in [7] and in [8] was Active.

Take `CC(COc1c(Cl)cccc1Cl)NCc1ccc2c(c1)C(C)(C)NC2(C)C` (stereo not drawn): the Activity result in data set [3] is “Non-toxic”.

As for `CC1(C)NC(C)(C)c2ccccc21`, the result in data set [1] and in data set [2] was inactive. Moreover, the Activity entry in data set [3] is given as “Non-toxic”.

For `CC(COc1c(Cl)cccc1Cl)NCc1ccc2c(c1)C(C)(C)N(O)C2(C)C` (stereo not drawn), the Activity result in data set [3] was “Non-toxic”.

As for `CC1(C)c2ccccc2C(C)(C)N1[O]`, the result in data set [1] and in data set [2] was inactive. In data set [3], the Activity entry is “Non-toxic”.

With `CC(COc1c(Cl)cccc1Cl)NCc1ccc2c(c1)C(C)(C)N([O])C2(C)C` (stereo not drawn), the outcome in data set [4] (Cavia porcellus) and in [10] was Active. For the same compound, the Activity result in data set [6] is listed as “Toxic”; in data set [3] it was “Non-toxic”. Besides, the outcome in data set [7] and in data set [8] was inactive.

`CC(N)COc1c(Cl)cccc1Cl` (stereo not drawn) yielded an Activity in data set [4] of 15 bpm. Besides, in data set [7], the outcome was inactive. Also, the outcome in data set [8] was Active.
